“Also recorded” adds a separate entry of the source. Where two headings read alike, the source gives them in different places. Marks after values point to notes of the source that are not given here.
Experiments:
[1] = tested on: patients evaluated for sleep disturbances after oral surgery; experiment: Study A: single dose after oral surgery, ibuprofen, diphenhydramine and combination vs placebo; type: in vivo, human; conditions: diphenhydramine HCl 50 mg; for Duration of Sleep: 6-point categorical scale 0 (≦5 hours) to 5 (≧9 hours); for Global Evaluation: global evaluation of sleep, 5-point categorical scale; for Cumulative % Asleep at 60 minutes: nurse graded; for Sleep Latency (median): nurse observed, single dose ibuprofen 400 mg; for Time to Rescue (median): nurse recorded; for SPRID3: time-weighted sum of pain relief and pain intensity differences over 0-3 hours
From the text: A single center, inpatient, single dose, randomized (stratified by gender and baseline pain severity), double blind, double dummy, parallel group placebo controlled study was used.
In a double dummy scenario, patients are given multiple dosage forms, one study medication for the group in which they are assigned, and placebos resembling the dosage forms for the other study groups. […] The combination was in a soft gelatin capsule formulation.
The art recognizes that patient-assessed duration of sleep is a very good indicator of the amount of sleep received by the patient. If patients requested rescue medication within an hour of receiving treatment, they were considered protocol violators and removed from the study.
The SPRID3 calculation was as follows. AT 90 minutes, 2 hours, and 3 hours, the patients were woken and asked two questions: how much relief of pain have you had? (no relief=0, a little=1, some=2, a lot=3, complete=4) and what is the severity of your pain? (none=0, mild=1, moderate=2, severe=3). Pain intensity difference (PID) was determined by subtracting the severity of pain score at the time in question to the baseline score measured before treatment. The pain relief rating (PPR) was then added to the PID for a PRID score. The PRID scores were plotted on a graph over time for each patient, and the SPRID3 score was read as the area under the curve for each patient's PRID plot. SPRID3 is a combination measurement of pain relief and pain severity.
In this model, only one hour of phase shifting sleeplessness was induced, compared to three hours in subsequent studies. In other words, patients were required to go to sleep one hour earlier than their bedtime.

[2] = Interaction and stability testing of ibuprofen and diphenhydramine in one composition; type: physicochemical; conditions: dissolution, appearance, potency
From the text: An ion pair or salt could, thus, be formed. Such an interaction creates a more nonpolar composition, which may have different dissolution characteristics and absorption profile in the body. Such changes in a pharmaceutical composition may be highly undesirable, due to unpredictability of effect.

[3] = tested on: patients with pain following oral surgery, bedtime 3 hours early; experiment: Study B (AE-98-01): ibuprofen/diphenhydramine combination vs ibuprofen alone and placebo after oral surgery; type: in vivo, human
Procedure: This study was conducted in a similar manner to Example 1.
The placebo group also received soft gelatin capsules.
The trial was conducted as a randomized, stratified (by baseline pain and gender), inpatient, placebo controlled, partial factorial, single dose, double blind, parallel group, single center trial. Following oral surgery, patients were kept at the clinic site overnight. Study medications were dispenses when patients experienced pain at a moderate level or greater, and when it was between about 6:30 and 8:00 p.m. (3 hours prior to the patient's usual bedtime). Patients were required to go to sleep after receiving study medication.
The same sleep parameters were used as in Example 1. Additionally, global assessment as a pain reliever was determined. This parameter was a patient-assessed parameter made at the time of rescue medication, if needed, or in the morning, if no rescue medication. Pain relief was assessed on a five-point scale (0=poor, 1=fair, 2=good, 3=very good, 4=excellent). Sleep was monitored by an observer at regular intervals over 3 hours post-dosing. Patients provided pain assessments at 90 and 120 minutes post-dosing. Patients also provided subjective assessments of sleep efficacy, global assessments of sleep and pain the next morning or at the time rescue medication was used.
The following statistical methods were used. All analyses were done using SAS® Version 6.12. Subjective sleep and pain assessments were analyzed by analysis of variance (ANOVA), incorporating effects for treatment, baseline pain severity rating (PSR), and gender in the model. In addition, the interactions of treatment-by-baseline PSR and treatment-by-gender were assessed (at the 0.15 level) in separate models, by adding interaction terms, one at a time, to the initial ANOVA model. The distributions of sleep latency and time to rescue medication were assessed using the Kaplan-Meier estimates, and the variables were analyzed using the Cox proportional hazards regression model with treatment, baseline PSR and gender effects. In addition, the interactions of treatment-by-baseline PSR and treatment-by-gender were assessed (at the 0.15 level) in separate models by adding each interaction term, one at a time, to the initial model.
If each interaction was generally significant (p≦0.15), it was retained in the final model. In the assessment of treatment effects in the presence of interactions, each level of the stratifying variable were to be weighted equally (consistent with the ANOVA models). Ninety-five percent confidence intervals for the median time to sleep and median time to rescue medication were derived. In addition, the actual and cumulative proportion of subjects asleep at each observation time point and the cumulative proportion of subjects who took rescue medication by each observation time point were analyzed by the Cochran-Mantel-Haenszel test controlling for baseline PSR and gender.
In order to protect the Type I error at the 0.05 level, comparisons were tested in sequential order. Each step had to be significant for the subsequent steps to be eligible for significance.
The secondary end points were assessed at the 0.05 level of significance, in the same sequential order.
The primary analysis of efficacy was conducted on the intent-to-treat population, which included all randomized subjects who took the study medication and had at least one post-baseline (sleep and pain) efficacy assessment.

[4] = tested on: subjects with pain following oral surgery, bedtime at least 3 hours early; experiment: Study C (AE-98-02): ibuprofen/diphenhydramine combination vs ibuprofen alone after oral surgery; type: in vivo, human
Procedure: This was a randomized stratified (by baseline pain and gender), inpatient, placebo-controlled, partial-factorial, single-dose, double-blind, parallel group, single-center trial. Following oral surgery, subjects were housed and observed at a clinic site overnight. When subjects experienced at least moderate pain and it was between approximately 6:30 PM and 8:00 PM (at least 3 hours earlier than their usual bedtime), they received study medication and were required to go to bed for the evening. Sleep was evaluated by an observer at regular intervals over 3 hours post-dosing. […] Subjects also provided subjective assessments of sleep efficacy as well as global assessments of the study medication as a sleep-aid and as an analgesic the next morning (or at the time rescue medication was used).
The patients were assessed for duration of sleep, cumulative percent of subjects asleep at 60 minutes post-dosing (based on observed sleep latency assessments). they were also assessed for pain using SPRID2 (time-weighted sum of pain relief and pain intensity differences from baseline over 0-2 hours). Sleep latency (observer based), ease of falling asleep, and global evaluation of sleep were also used.
Cumulative percent of subjects asleep by 60 minutes was analyzed by the Cochran-Mantel-Haenszel test controlling for baseline PSR and gender. Subjective sleep and pain assessments were analyzed by analysis of variance (ANOVA), incorporating effects for treatment, baseline pain severity rating (PSR), and gender in the model. The distributions of sleep latency and time to rescue medication were assessed using the Kaplan-Meier estimates, and the variables were analyzed using the Cox proportional hazards (PH) regression model with treatment, baseline PSR, and gender effects. For both ANOVA and PH models, the interactions of treatment-by-baseline PSR and treatment-by-gender were assessed (at the 0.15 level) in separate models by adding each interaction term, one at a time, to the initial model. If each interaction was generally significant (p≦0.15), it was retained in the final model. In the assessment of treatment effects in the presence of interactions, each level of the stratifying variable was to be weighted equally.
In order to protect the Type I error at the 0.05 level, comparisons were tested in sequential order for the primary as well as the secondary efficacy endpoints. Each step had to be significant for the subsequent steps to be eligible for significance. […] The secondary end points were assessed, at the 0.05 level of significance, in a similar sequential order. The primary analysis of efficacy was based on the intent-to-treat (ITT) population, which included all randomized subjects who took study medication and had at least one post-baseline (sleep and pain) efficacy assessment.

[5] = tested on: subjects of the partial factorial studies (pain after oral surgery); experiment: Pooled data of studies AE-98-01/02; type: in vivo, human; conditions: for % who required remed.: Pooled Studies AE-98-01/02
From the text: Data from two of the studies were pooled together. Some of the most significant study data are presented in Table 7, with graphical representations of the data in FIGS. 28-29.

[6] = tested on: normal sleep patterns in humans; conditions: cited from earlier work
[7] = oral administration, cited from earlier work
[8] = Study B, 5-point scale 0=poor to 4=excellent, IBU 400 mg, DPH 50 mg
[9] = Study C, 5-point scale 0=poor to 4=excellent, IBU 400 mg, DPH 50 mg

For CN(C)CCOC(c1ccccc1)c1ccccc1 [DPH, 2-(diphenylmethoxy)-N,N-dimethylethylamine], the “Duration of Sleep” value ([1]; ibuprofen 400 mg) was 0.23 A, the “Global Evaluation” value ([1]; ibuprofen 400 mg) was 0.77 A and the “% Requiring Rescue” value ([1]; ibuprofen 400 mg) was 97% B. For the same compound, the “Cumulative % Asleep at 60 minutes” value ([1]; ibuprofen 400 mg) was 61.3 A %, the “Sleep Latency (median)” value [1] was 51.3 A and the “Time to Rescue (median)” value ([1]; ibuprofen 400 mg) was 2.04 A hours. The SPRID3 ([1]; ibuprofen 400 mg) was 1.8 A and the “interaction between ibuprofen and diphenhydramine in the composition” value [2] was “much more prone to interaction than the citrate form”.
In the case of CC(C)Cc1ccc(C(C)C(=O)O)cc1 (centres unmarked) [IBU, Ibuprofen], the “Ease of Falling Asleep” value ([1]; 5-point scale 0=did not fall asleep to 4=very easy, ibuprofen 400 mg) is reported as 2.10 B, the “Duration of Sleep” value ([1]; ibuprofen 400 mg) is reported as 2.68 B and the “Global Evaluation” value ([1]; ibuprofen 400 mg) is reported as 1.84 B. For the same compound, the “% Requiring Rescue” value ([1]; ibuprofen 400 mg) was 45% B, the “Cumulative % Asleep at 60 minutes” value ([1]; ibuprofen 400 mg) was 77.4 AB % and the Sleep Latency (median) [1] was 25 min. The “Sleep Latency (median)” value ([1]; listed as ibuprofen) was “significantly better than the diphenhydramine and placebo groups”, the “Time to Rescue (median)” value ([1]; ibuprofen 400 mg) was over 10 B hours and the SPRID3 ([1]; ibuprofen 400 mg) was 13.7 B. The “Ease of Falling Asleep - mean” value ([3]; Study B, 5-point scale 0-4, IBU 400 mg, DPH 50 mg) was 1.81*, the “Global Assessment as a Pain Reliever” value [3, 8] was 2.30* and the “Global Assessment as a Sleep-Aid” value [3, 8] was 1.63*. The “Duration of Sleep - mean” value ([3]; Study B, 6-point categorical scale, IBU 400 mg, DPH 50 mg) was 2.26*, the “PRID 90 minutes” value ([3]; Study B, 90 minutes post-dosing, IBU 400 mg, DPH 50 mg) was 3.72* and the “PRID 120 minutes” value ([3]; Study B, 120 minutes post-dosing, IBU 400 mg, DPH 50 mg) was 4.09*. The “% Requiring Rescue Medication for Any Reason” value ([3]; Study B, IBU 400 mg, DPH 50 mg) was 48.3* %, the SPRID2 ([3]; Study B, IBU 400 mg, DPH 50 mg) was 7.63* and the “Sleep Latency (Observed) - median” value ([3]; Study B, IBU 400 mg, DPH 50 mg) was 44.0* minutes. The “Time to Rescue Medication for Any Reason” value ([3]; Study B, IBU 400 mg, DPH 50 mg) was >12* hours, the “Cumulative % Asleep at 60 minutes” value ([3]; Study B, IBU 400 mg, DPH 50 mg, soft gelatin capsules) was 64.4^† % and the “% who required remed.” value ([3]; Table 7, Study AE-98-01) was “(48%)”. The “Time to Remed.” value ([3]; Table 7, Study AE-98-01) was over 12.0 B hrs, the “Global Eval - Sleep-Aid” value ([3]; Table 7, Study AE-98-01, 5-point scale 0-Poor to 4 = Excellent) was 1.63 B and the “Duration of Sleep” value ([3]; Table 7, Study AE-98-01, 6-point scale 0 = <5 hrs to 5 = >9 hrs) was 2.26 B. For the same compound, the “Ease of Falling Asleep” value ([4]; Study C, 5-point scale 0-4, IBU 400 mg, DPH 50 mg) was 1.89^†, the “Global Assessment as a Pain Reliever” value [4, 9] was 2.51^† and the “Global Assessment as a Sleep-Aid” value [4, 9] was 1.57^†. For the same compound, the “Duration of Sleep” value ([4]; Study C, 6-point categorical scale, IBU 400 mg, DPH 50 mg, soft gelatin capsules) was 1.98^†, the “PRID 90 minutes” value ([4]; Study C, 90 minutes post-dosing, IBU 400 mg, DPH 50 mg) was 3.83^†,§ and the “PRID 120 minutes” value ([4]; Study C, 120 minutes post-dosing, IBU 400 mg, DPH 50 mg) was 4.13^†. The “% Requiring Rescue Medication for Any Reason” value ([4]; Study C, IBU 400 mg, DPH 50 mg) was 42.3^† %, the “Cumulative % Asleep at 60 minutes” value ([4]; Study C, IBU 400 mg, DPH 50 mg) was 75.6^† % and the “Time to Rescue Medication for Any Reason” value ([4]; Study C, IBU 400 mg, DPH 50 mg) was >12^† hours. For the same compound, the SPRID2 ([4]; Study C, over 0-2 hours, IBU 400 mg, DPH 50 mg) was 7.81^†,§, the “% who required remed.” value ([4]; Table 7, Study AE-98-02) was “(42%)” and the “Time to Remed.” value ([4]; Table 7, Study AE-98-02) was over 12.0 B hrs. For the same compound, the “Global Eval - Sleep-Aid” value ([4]; Table 7, Study AE-98-02, 5-point scale 0-Poor to 4 = Excellent) was 1.57 B, the “Duration of Sleep” value ([4]; Table 7, Study AE-98-02, 6-point scale 0 = <5 hrs to 5 = >9 hrs) was 1.98 B and the “% who required remed.” value [5] was “(45%)”. For the same compound, the “% who required remed.” value ([5]; listed as ibuprofen) was 45%, the “Time to Remed.” value ([5]; Table 7, Pooled Studies AE-98-01/02) was over 12.0 B hrs and the “Duration of Sleep” value ([5]; Table 7, Pooled Studies AE-98-01/02, 6-point scale) was 2.12 B. The “Global Eval - Sleep-Aid” value ([5]; Table 7, pooled studies, 5-point scale 0-Poor to 4 = Excellent) was 1.60 B, the “subjects who slept for less than 5 hours” value ([5]; pooled data) was 32% and the “effect on sleep (Gengo 1996)” value ([6]; healthy adults) was “no impact on sleep”. The “effect on sleep (Murphy et al. 1994)” value ([6]; patients not suffering from pain) was “increase the number of awakenings and percentage of time spent in stage wake, and decrease sleep efficiency; also recorded: delay the onset of deeper stages of sleep”, the “time to peak serum concentrations” value ([7]; suspensions) was at most 1 h and the “time to peak serum concentrations” value ([7]; tablets) was at most 2 h.
